From US7632946B2, “Naphthyridine-based antibacterial compositions” (Abbott Laboratories, priority 2004, dated 2009)
pIC50: −log10 of the molar value.

Test system: bacterial protein synthesis (S30 extract from quinolone-succeptable Streptococcus pneumoniae ATCC 46919)
Assay: Cell-free translation assay, firefly luciferase reporter, S30 Streptococcus pneumoniae extract
Format: biochemical
Details: luciferase mRNA, read-out: IC50, concentration causing 50% inhibition of bacterial protein synthesis
Procedure: Bacterial protein synthesis inhibitory activity of representative compounds of this invention having formula (I) and the commercially-available antibacterials in TABLE 2 was determined by translation assays using the firefly luciferase reporter system described by Murray et al., (2001), “Staphylococcus aureus Cell Extract Transcription-Translation Assay: Firefly Luciferase Reporter System for Evaluating Protein Translation Inhibitors,” Antimicrob. Agents Chemother. 45(6): 1900-1904, but replacing the Staphylococcus aureus S30 extract described therein with S30 Streptococcus pneumoniae extract from quinolone-succeptable Streptococcus pneumoniae ATCC 46919, and replacing plasmid coding for the luciferase gene with mRNA (encoding produced by in vitro transcription from the plasmid pAS10rbs3) which encoded the luciferase gene with an upstream Streptococcus pneumoniae promoter and Shine-Dalgarno site.

## CC(=O)NC[C@H]1CN(c2ccc(N3CCOCC3)c(F)c2)C(=O)O1 [Linezolid]
  pIC50: ~5.52
